The target in experiment [1] is T1, M-phase inducer phosphatase 2 (Homo sapiens, UniProt P30305).
T1 sequence (P30305 whole entry): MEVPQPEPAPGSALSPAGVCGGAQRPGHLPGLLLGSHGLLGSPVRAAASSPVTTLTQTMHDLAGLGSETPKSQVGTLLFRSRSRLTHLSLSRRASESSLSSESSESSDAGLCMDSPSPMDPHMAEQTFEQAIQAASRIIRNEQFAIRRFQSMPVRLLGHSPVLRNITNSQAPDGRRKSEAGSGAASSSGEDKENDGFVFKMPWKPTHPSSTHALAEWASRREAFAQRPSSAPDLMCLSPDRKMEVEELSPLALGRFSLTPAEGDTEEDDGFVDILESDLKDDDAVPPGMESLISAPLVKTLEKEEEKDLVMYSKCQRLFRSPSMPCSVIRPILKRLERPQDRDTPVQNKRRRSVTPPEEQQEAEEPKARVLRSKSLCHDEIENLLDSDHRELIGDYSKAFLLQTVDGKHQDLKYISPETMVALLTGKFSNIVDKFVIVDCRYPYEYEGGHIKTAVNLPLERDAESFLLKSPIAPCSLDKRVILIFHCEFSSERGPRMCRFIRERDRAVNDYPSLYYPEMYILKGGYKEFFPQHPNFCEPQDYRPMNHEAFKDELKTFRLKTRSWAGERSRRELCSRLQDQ
The experiment in a line: Inhibitory concentration to human cell division cycle 25B (Cdc25B).

Experiment [2] addresses T2, Tyrosine-protein phosphatase non-receptor type 1 (Homo sapiens) (UniProt P18031).
T2 sequence (whole entry): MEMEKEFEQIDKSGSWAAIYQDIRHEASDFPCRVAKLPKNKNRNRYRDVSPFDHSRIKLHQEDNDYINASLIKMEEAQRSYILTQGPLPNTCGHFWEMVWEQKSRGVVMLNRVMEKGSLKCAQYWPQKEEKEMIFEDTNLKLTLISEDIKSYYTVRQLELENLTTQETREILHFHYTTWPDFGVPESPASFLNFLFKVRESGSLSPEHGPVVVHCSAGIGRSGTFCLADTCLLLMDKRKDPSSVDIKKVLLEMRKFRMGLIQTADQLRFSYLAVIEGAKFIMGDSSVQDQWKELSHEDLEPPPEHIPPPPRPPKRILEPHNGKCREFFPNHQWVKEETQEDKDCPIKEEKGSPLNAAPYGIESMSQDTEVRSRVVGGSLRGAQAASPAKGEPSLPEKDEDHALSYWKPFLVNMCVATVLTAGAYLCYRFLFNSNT
The experiment is described as follows: Selectivity against protein tyrosine phosphatase 1B.

The target in experiment [3] is Serine/threonine-protein phosphatase 2A catalytic subunit alpha isoform (Bos taurus) (UniProt P67774). The experiment in a line: Selectivity against protein phosphatase 2A.
Sequence of Serine/threonine-protein phosphatase 2A catalytic subunit alpha isoform (Bos taurus) (P67774 whole entry, canonical isoform): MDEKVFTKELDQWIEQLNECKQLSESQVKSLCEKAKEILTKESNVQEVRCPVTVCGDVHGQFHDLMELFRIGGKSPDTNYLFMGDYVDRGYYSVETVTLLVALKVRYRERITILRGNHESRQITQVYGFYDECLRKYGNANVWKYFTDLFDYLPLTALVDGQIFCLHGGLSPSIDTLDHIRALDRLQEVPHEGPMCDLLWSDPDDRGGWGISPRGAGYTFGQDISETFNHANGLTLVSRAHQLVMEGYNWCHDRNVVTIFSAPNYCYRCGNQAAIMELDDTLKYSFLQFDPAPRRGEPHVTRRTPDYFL
Experiment [4] deals with Receptor-type tyrosine-protein phosphatase alpha (Homo sapiens) (UniProt P18433). The experiment in a line: Selectivity against protein tyrosine phosphatase alpha.
Sequence of Receptor-type tyrosine-protein phosphatase alpha (Homo sapiens) (P18433 20-802 limits assumed): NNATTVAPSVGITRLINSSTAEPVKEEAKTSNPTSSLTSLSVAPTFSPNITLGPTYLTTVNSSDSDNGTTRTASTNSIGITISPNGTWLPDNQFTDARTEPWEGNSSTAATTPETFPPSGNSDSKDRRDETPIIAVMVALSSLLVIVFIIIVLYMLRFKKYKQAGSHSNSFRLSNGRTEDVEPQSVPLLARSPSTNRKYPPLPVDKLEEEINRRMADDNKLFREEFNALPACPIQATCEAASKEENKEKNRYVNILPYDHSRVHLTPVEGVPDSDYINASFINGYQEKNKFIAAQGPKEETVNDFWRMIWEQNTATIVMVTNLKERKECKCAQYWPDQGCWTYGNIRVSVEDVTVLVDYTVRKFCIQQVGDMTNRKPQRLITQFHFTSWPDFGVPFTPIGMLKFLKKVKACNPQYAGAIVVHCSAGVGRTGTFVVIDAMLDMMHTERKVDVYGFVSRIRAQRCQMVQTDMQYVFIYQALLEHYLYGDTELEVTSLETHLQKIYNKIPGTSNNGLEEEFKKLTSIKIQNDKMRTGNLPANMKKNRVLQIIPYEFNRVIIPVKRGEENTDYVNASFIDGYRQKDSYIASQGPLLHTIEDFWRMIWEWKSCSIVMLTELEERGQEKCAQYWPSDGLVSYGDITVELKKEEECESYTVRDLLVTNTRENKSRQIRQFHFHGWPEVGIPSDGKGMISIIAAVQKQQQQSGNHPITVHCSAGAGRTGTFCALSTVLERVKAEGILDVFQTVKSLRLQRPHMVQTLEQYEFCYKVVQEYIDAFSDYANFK

For orientation: IC50 means the concentration needed to halve the response being measured. A lower IC50 goes with inhibition by little substance.

Take `CC(=O)CC(=O)O[C@H]1CC/C(C)=C\CC[C@]2(C)[C@@H]([C@H](C)CCCC(C)C)CC[C@H]2c2ccc(cc2C(=O)O)C1`: in experiment [1], inhibition was half-maximal at 7.5 µM (IC50). Besides, the Selectivity in experiment [2], in experiment [3] and in experiment [4] was > 30 µM throughout.
The compound `C/C1=C/CC[C@]2(C)[C@@H]([C@H](C)COC(=O)c3ccccc3)CC[C@H]2c2ccc(cc2C(=O)O)C[C@@H](O)CC1` showed an IC50 in experiment [1] of 6.5 µM. This counts as single-digit micromolar.
Turning to `CC(C)CCC[C@@H](C)[C@H]1CC[C@H]2c3ccc(cc3C(=O)O)CC(=O)CCC(C)CCC[C@]12C` (some centres undefined), in experiment [1], half-maximal inhibition (IC50) required 3.4 µM. For the same compound, the Selectivity in experiment [2] is > 30 µM; in experiment [3], 25 µM; in experiment [4] it was > 30 µM.
Compound `C/C1=C/CC[C@]2(C)[C@@H]([C@H](C)CCCC(C)C)CC[C@H]2c2ccc(cc2C(=O)O)C[C@H](Oc2ccccc2)CC1` displayed an IC50 in experiment [1] of 7.1 µM. For the same compound, the Selectivity in experiment [2], in experiment [3] and in experiment [4] was > 30 µM throughout.
`COCc1cc2ccc1[C@@H]1CC[C@H]([C@H](C)CCCC(C)C)[C@@]1(C)CC/C=C(/C)CC[C@](C)(OC(C)=O)C2` displayed a concentration for half-maximal inhibition (IC50) in experiment [1] of 29 µM. Also, the Selectivity in experiment [2], in experiment [3] and in experiment [4] was > 30 µM throughout.
Turning to `CC(C)CCC[C@@H](C)[C@H]1CC[C@H]2c3ccc(cc3CO)C[C@@H](O)CCC(C)CCC[C@]12C` (some centres undefined), in experiment [1], the concentration for half-maximal inhibition (IC50) is > 30 µM. The Selectivity in experiment [2], in experiment [3] and in experiment [4] was > 30 µM throughout.
As for `C/C1=C/CC[C@]2(C)[C@@H]([C@H](C)CCCC(C)C)CC[C@H]2c2ccc(cc2C(=O)O)CC(=O)CC1`, the IC50 in experiment [1] turned out to be 8.5 µM. The Selectivity in experiment [2], in experiment [3] and in experiment [4] was > 30 µM throughout.
In the case of `COC(=O)C(=O)O[C@H]1CC/C(C)=C\CC[C@]2(C)[C@@H]([C@H](C)CCCC(C)C)CC[C@H]2c2ccc(cc2C(=O)O)C1`, in experiment [1], the IC50 came to 11 µM. In addition, the Selectivity in experiment [2], in experiment [3] and in experiment [4] was > 30 µM each time.
Take `CC(=O)O[C@H]1CC/C(C)=C\CC[C@]2(C)[C@@H]([C@H](C)CCCC(C)C)CC[C@H]2c2ccc(cc2C=O)C1`: it took 4.9 µM to reach half-maximal inhibition in experiment [1] (IC50). Further, the Selectivity in experiment [2], in experiment [3] and in experiment [4] was > 30 µM each time.
As to `CC(=O)O[C@H]1CCC(C)CCC[C@]2(C)[C@@H]([C@H](C)CCCC(C)C)CC[C@H]2c2ccc(cc2C(=O)O)C1` (some centres undefined), inhibition in experiment [1] was half-maximal at 7.8 µM (IC50). Also, the Selectivity in experiment [2], in experiment [3] and in experiment [4] was > 30 µM each time.
On to `CC(=O)O[C@@]1(C)CCC(C)CCC[C@]2(C)[C@@H]([C@H](C)CCCC(C)C)CC[C@H]2c2ccc(cc2C)C1` (some centres undefined), for which 11 µM corresponded to half-maximal inhibition in experiment [1] (IC50). Also, the Selectivity in experiment [2], in experiment [3] and in experiment [4] was > 30 µM throughout.
Turning to `CC(C)CCC[C@@H](C)[C@H]1CC[C@H]2c3ccc(cc3C(=O)O)CC(O)CCC(C)CCC[C@]12C` (some centres undefined), inhibition in experiment [1] was half-maximal at 4.9 µM (IC50). Also, the Selectivity in experiment [2], in experiment [3] and in experiment [4] was > 30 µM each time.
Take `C/C1=C/CC[C@]2(C)[C@@H]([C@H](C)CCCC(C)C)CC[C@H]2c2ccc(cc2C(C)O)C[C@@](C)(O)CC1` (some centres undefined): the IC50 in experiment [1] is > 30 µM. In addition, the Selectivity in experiment [2], in experiment [3] and in experiment [4] was > 30 µM each time.
`CC(=O)O[C@@]1(C)CC/C(C)=C\CC[C@]2(C)[C@@H]([C@H](C)CCCC(C)C)CC[C@H]2c2ccc(cc2C(C)=O)C1`: the 50% inhibitory concentration (IC50) in experiment [1] is > 30 µM. Moreover, the Selectivity in experiment [2], in experiment [3] and in experiment [4] was > 30 µM in each case.
`COC(=O)c1cc2ccc1[C@@H]1CC[C@H]([C@H](C)CCCC(C)C)[C@@]1(C)CC/C=C(/C)CCC(=O)C2`: the half-inhibitory concentration (IC50) in experiment [1] was > 30 µM. Moreover, the Selectivity in experiment [2], in experiment [3] and in experiment [4] was > 30 µM in each case.
Take `C/C1=C/CC[C@]2(C)[C@@H]([C@H](C)CCCC(C)C)CC[C@H]2c2ccc(cc2C(=O)O)CC(O)CC1` (some centres undefined): inhibition in experiment [1] was half-maximal at 7.9 µM (IC50). The Selectivity in experiment [2], in experiment [3] and in experiment [4] was > 30 µM each time.
`CC(=O)O[C@H]1CC/C(C)=C\CC[C@]2(C)[C@@H]([C@H](C)CCCC(C)C)CC[C@H]2c2ccc(cc2C(=O)O)C1` registered an IC50 in experiment [1] of 5.6 µM. The Selectivity in experiment [2], in experiment [3] and in experiment [4] was > 30 µM throughout.
As to `CC(=O)O[C@@]1(C)CCC(C)CCC[C@]2(C)[C@@H]([C@H](C)CCCC(C)C)CC[C@H]2c2ccc(cc2CN2CCOCC2)C1` (some centres undefined), in experiment [1], the concentration for half-maximal inhibition (IC50) is > 30 µM. The Selectivity in experiment [2], in experiment [3] and in experiment [4] was > 30 µM throughout.
In the case of `CC(=O)O[C@H]1CC/C(C)=C\CC[C@]2(C)[C@@H]([C@H](C)CCCC(C)C)CC[C@H]2c2ccc(cc2CO)C1`, the IC50 in experiment [1] is > 30 µM. Moreover, the Selectivity in experiment [2], in experiment [3] and in experiment [4] was > 30 µM each time.
Take `C/C1=C/CC[C@]2(C)[C@@H]([C@H](C)CCCC(C)C)CC[C@H]2c2ccc(cc2CO)C[C@@H](O)CC1`: in experiment [1], the IC50 was > 30 µM. Besides, the Selectivity in experiment [2], in experiment [3] and in experiment [4] was > 30 µM in each case.
Turning to `C/C1=C/CC[C@]2(C)[C@@H]([C@H](C)CCCC(C)C)CC[C@H]2c2ccc(cc2C=O)C[C@H](Oc2ccccc2)CC1`, half-maximal inhibition in experiment [1] (IC50) was put at 3.5 µM. Further, the Selectivity in experiment [2], in experiment [3] and in experiment [4] was > 30 µM each time.
In the case of `COC(=O)c1cc2ccc1[C@@H]1CC[C@H]([C@H](C)CCCC(C)C)[C@@]1(C)CC/C=C(/C)CC[C@H](O)C2`, in experiment [1], the IC50 is > 30 µM. Moreover, the Selectivity in experiment [2], in experiment [3] and in experiment [4] was > 30 µM each time.
Compound `C/C1=C/CC[C@]2(C)[C@@H]([C@H](C)CCCC(C)C)CC[C@H]2c2ccc(cc2C=O)C[C@@H](O)CC1` returned an IC50 in experiment [1] of 11 µM. The Selectivity in experiment [2], in experiment [3] and in experiment [4] was > 30 µM in each case.
`C=CC[C@@]1(O)CC/C(C)=C\CC[C@]2(C)[C@@H]([C@H](C)CCCC(C)C)CC[C@H]2c2ccc(cc2C(=O)O)C1` returned a half-inhibitory concentration (IC50) in experiment [1] of 8.4 µM. The Selectivity in experiment [2], in experiment [3] and in experiment [4] was > 30 µM each time.
`Cc1cc2ccc1[C@@H]1CC[C@H]([C@H](C)CCCC(C)C)[C@@]1(C)CCCC(C)CC[C@](C)(O)C2` (some centres undefined): the concentration for half-maximal inhibition (IC50) in experiment [1] was > 30 µM. Also, the Selectivity in experiment [2], in experiment [3] and in experiment [4] was > 30 µM each time.
Regarding `C=CC[C@]1(O)CC/C(C)=C\CC[C@]2(C)[C@@H]([C@H](C)CCCC(C)C)CC[C@H]2c2ccc(cc2C(=O)O)C1`, the half-maximal inhibitory concentration (IC50) in experiment [1] was determined as 9.3 µM. For the same compound, the Selectivity in experiment [2], in experiment [3] and in experiment [4] was > 30 µM each time.
`CC(=O)O[C@H]1CC[C@](C)(C2CC[C@@]3(C)C(CC[C@@H]3[C@H](C)CCCC(C)C)[C@@H]2CC(=O)O)C(=O)O1` (some centres undefined) registered an IC50 in experiment [1] of 8.7 µM.
`CC(=O)c1cc2ccc1[C@@H]1CC[C@H]([C@H](C)CCCC(C)C)[C@@]1(C)CC/C=C(/C)CC[C@](C)(O)C2`: the IC50 in experiment [1] was > 30 µM. Further, the Selectivity in experiment [2], in experiment [3] and in experiment [4] was > 30 µM throughout.
With `COC(=O)c1cc2ccc1[C@@H]1CC[C@H]([C@H](C)CCCC(C)C)[C@@]1(C)CC/C=C(/C)CC[C@H](OC(C)=O)C2`, in experiment [1], the concentration for half-maximal inhibition (IC50) is > 30 µM. The Selectivity in experiment [2], in experiment [3] and in experiment [4] was > 30 µM throughout.
With `CC(=O)O[C@@]1(C)CC/C(C)=C\CC[C@]2(C)[C@@H]([C@H](C)CCCC(C)C)CC[C@H]2c2ccc(cc2C(C)O)C1` (some centres undefined), the 50% inhibitory concentration (IC50) in experiment [1] was > 30 µM. Further, the Selectivity in experiment [2], in experiment [3] and in experiment [4] was > 30 µM in each case.

The values are drawn from ChEMBL document CHEMBL1148233, “Design and synthesis of macrocyclic inhibitors of phosphatase cdc25B” (Bioorg Med Chem Lett, 2004).
